For this assay, the system named is Nucleic Acid. In words: Apparent binding constant towards calf thymus DNA. Format: nucleic-acid assay. To be noted: Bos taurus.

SMILES strings stand for the structures.

Turning to `CC/N=c1/cc2oc3cc(NCC)c(C)cc3nc-2c2ccccc12`, the K app worked out at 26000 M⁻¹.

These data come from ChEMBL document CHEMBL1139502, “Oxazine 170 induces DNA:RNA:DNA triplex formation” (J Med Chem, 2005).
